Assay results from ChEMBL document CHEMBL1201862, “PubChem BioAssay data set” (2004).
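Briefly, cells in 96-well plates were exposed to five compound concentrations for 48 h, and endpoints were estimated by linear interpolation. At the GI50, growth is halved.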 Calls of active or inactive are those of the source. Rule as the data show it: active = GI50 up to about 1.1 µM and inactive = higher.

Legend:
Experiment in all cases: growth of human tumour cells (NCI), 48 h
[1] = system: UACC-62
[2] = system: SR
[3] = system: MOLT-4
[4] = system: IGROV-1
[5] = system: KM12
[6] = system: OVCAR-3
[7] = system: M14
[8] = system: SF-268
[9] = system: A498
[10] = system: K562
[11] = system: ACHN
[12] = system: A549
[13] = system: U-251
[14] = system: SN12C
[15] = system: SK-OV-3
[16] = system: RPMI-8226
[17] = system: NCI-H23
[18] = system: NCI-H460
[19] = system: SK-MEL-5

CCOC(=O)CC[C@H](NC(=O)c1nc[nH]c1[N+](=O)[O-])C(=O)OCC
GI50 [1]: > 100 µM (inactive) | GI50 [2]: 35.7 µM (inactive) | GI50 [3]: > 100 µM (inactive) | GI50 [4]: > 100 µM (inactive) | GI50 [5]: > 100 µM (inactive) | GI50 [6]: > 100 µM (inactive) | GI50 [7]: > 100 µM (inactive) | GI50 [8]: > 100 µM (inactive) | GI50 [9]: > 100 µM (inactive) | GI50 [10]: > 100 µM (inactive) | GI50 [11]: > 100 µM (inactive) | GI50 [12]: > 100 µM (inactive) | GI50 [13]: > 100 µM (inactive) | GI50 [14]: > 100 µM (inactive) | GI50 [15]: > 100 µM (inactive) | GI50 [16]: > 100 µM (inactive) | GI50 [17]: > 100 µM (inactive) | GI50 [18]: > 100 µM (inactive)

CCCCCCCCCCCC(=O)OCC1OC(n2cc(F)c(=O)[nH]c2=O)C(N)C(OC(=O)CCCCCCCCCCC)C1O (stereo unspecified)
GI50 [1]: > 100 µM (inactive) | GI50 [2]: 34.4 µM (inactive) | GI50 [3]: 27 µM (inactive) | GI50 [19]: 0.59 µM (active) | GI50 [5]: 45.4 µM (inactive) | GI50 [6]: 47.5 µM (inactive) | GI50 [7]: 64.4 µM (inactive) | GI50 [8]: > 100 µM (inactive) | GI50 [9]: > 100 µM (inactive) | GI50 [10]: 30.2 µM (inactive) | GI50 [11]: > 100 µM (inactive) | GI50 [12]: > 100 µM (inactive) | GI50 [13]: > 100 µM (inactive) | GI50 [14]: 60.7 µM (inactive) | GI50 [15]: > 100 µM (inactive) | GI50 [16]: 54.5 µM (inactive) | GI50 [17]: > 100 µM (inactive) | GI50 [18]: > 100 µM (inactive)

O=C(CCc1nnc(S)[nH]1)Nc1ccccc1Cl
GI50 [1]: > 100 µM (inactive) | GI50 [2]: > 100 µM (inactive) | GI50 [3]: > 100 µM (inactive) | GI50 [19]: > 100 µM (inactive) | GI50 [4]: > 100 µM (inactive) | GI50 [5]: > 100 µM (inactive) | GI50 [6]: > 100 µM (inactive) | GI50 [7]: > 100 µM (inactive) | GI50 [8]: > 100 µM (inactive) | GI50 [9]: > 100 µM (inactive) | GI50 [10]: > 100 µM (inactive) | GI50 [11]: > 100 µM (inactive) | GI50 [12]: > 100 µM (inactive) | GI50 [13]: > 100 µM (inactive) | GI50 [14]: > 100 µM (inactive) | GI50 [15]: > 100 µM (inactive) | GI50 [16]: > 100 µM (inactive) | GI50 [17]: > 100 µM (inactive) | GI50 [18]: > 100 µM (inactive)

COC(=O)c1nc(N)nc(O)c1-c1ccc(Cl)cc1
GI50 [1]: > 100 µM (inactive) | GI50 [2]: > 70 µM (inactive) | GI50 [3]: > 100 µM (inactive) | GI50 [19]: > 100 µM (inactive) | GI50 [4]: > 100 µM (inactive) | GI50 [5]: > 100 µM (inactive) | GI50 [6]: > 100 µM (inactive) | GI50 [7]: > 100 µM (inactive) | GI50 [8]: > 100 µM (inactive) | GI50 [9]: > 100 µM (inactive) | GI50 [10]: > 100 µM (inactive) | GI50 [11]: > 100 µM (inactive) | GI50 [12]: > 100 µM (inactive) | GI50 [13]: > 100 µM (inactive) | GI50 [14]: > 100 µM (inactive) | GI50 [15]: > 100 µM (inactive) | GI50 [16]: > 100 µM (inactive) | GI50 [17]: > 100 µM (inactive) | GI50 [18]: > 100 µM (inactive)

CN(NC1=NCCO1)c1ccc2ccccc2c1
GI50 [1]: 49.1 µM (inactive) | GI50 [2]: 39.6 µM (inactive) | GI50 [3]: 42.2 µM (inactive) | GI50 [19]: 29.2 µM (inactive) | GI50 [4]: 39.7 µM (inactive) | GI50 [5]: 63.1 µM (inactive) | GI50 [6]: 23.6 µM (inactive) | GI50 [7]: 36 µM (inactive) | GI50 [8]: 47.5 µM (inactive) | GI50 [9]: 44.3 µM (inactive) | GI50 [10]: 28.3 µM (inactive) | GI50 [11]: 62.8 µM (inactive) | GI50 [12]: 60.3 µM (inactive) | GI50 [13]: 59.7 µM (inactive) | GI50 [14]: 62.8 µM (inactive) | GI50 [15]: 39.1 µM (inactive) | GI50 [16]: 76.7 µM (inactive) | GI50 [17]: 32.1 µM (inactive) | GI50 [18]: 27.2 µM (inactive)

O=c1[nH]cc(COCCCO)c(=O)[nH]1
GI50 [1]: > 100 µM (inactive) | GI50 [2]: > 100 µM (inactive) | GI50 [3]: > 100 µM (inactive) | GI50 [19]: > 100 µM (inactive) | GI50 [4]: > 100 µM (inactive) | GI50 [5]: > 100 µM (inactive) | GI50 [6]: > 100 µM (inactive) | GI50 [7]: > 100 µM (inactive) | GI50 [8]: > 100 µM (inactive) | GI50 [9]: > 100 µM (inactive) | GI50 [10]: > 100 µM (inactive) | GI50 [11]: > 100 µM (inactive) | GI50 [12]: > 100 µM (inactive) | GI50 [13]: > 100 µM (inactive) | GI50 [14]: > 100 µM (inactive) | GI50 [15]: > 100 µM (inactive) | GI50 [16]: > 100 µM (inactive) | GI50 [17]: 53.5 µM (inactive) | GI50 [18]: > 100 µM (inactive)

CN(CC(=O)O)c1ncc2c(n1)-c1ccccc1CC2
GI50 [1]: > 100 µM (inactive) | GI50 [2]: > 100 µM (inactive) | GI50 [3]: > 100 µM (inactive) | GI50 [19]: > 100 µM (inactive) | GI50 [4]: > 100 µM (inactive) | GI50 [5]: > 100 µM (inactive) | GI50 [6]: > 100 µM (inactive) | GI50 [7]: > 100 µM (inactive) | GI50 [8]: > 100 µM (inactive) | GI50 [9]: > 100 µM (inactive) | GI50 [10]: > 100 µM (inactive) | GI50 [11]: > 100 µM (inactive) | GI50 [12]: > 100 µM (inactive) | GI50 [13]: > 100 µM (inactive) | GI50 [14]: > 100 µM (inactive) | GI50 [15]: > 100 µM (inactive) | GI50 [16]: > 100 µM (inactive) | GI50 [17]: > 100 µM (inactive) | GI50 [18]: > 100 µM (inactive)

c1ccc2c3c([nH]c2c1)C1(CCCCC1)c1c([nH]c2ccccc12)C31CCCCC1
GI50 [1]: 23.9 µM (inactive) | GI50 [2]: 22.1 µM (inactive) | GI50 [3]: 47.5 µM (inactive) | GI50 [19]: 26.2 µM (inactive) | GI50 [4]: 31.3 µM (inactive) | GI50 [5]: > 100 µM (inactive) | GI50 [6]: > 100 µM (inactive) | GI50 [7]: 30 µM (inactive) | GI50 [8]: 23.6 µM (inactive) | GI50 [9]: 24.2 µM (inactive) | GI50 [10]: 35.6 µM (inactive) | GI50 [11]: 17.5 µM (inactive) | GI50 [12]: 39.3 µM (inactive) | GI50 [13]: 30.2 µM (inactive) | GI50 [14]: 22.9 µM (inactive) | GI50 [15]: 18.2 µM (inactive) | GI50 [16]: 56.8 µM (inactive) | GI50 [17]: 31 µM (inactive) | GI50 [18]: 34.7 µM (inactive)

O=C(O)CCCCCOc1cccnc1/C=N/NC1=NCCN1
GI50 [1]: > 100 µM (inactive) | GI50 [2]: > 100 µM (inactive) | GI50 [3]: > 100 µM (inactive) | GI50 [19]: > 100 µM (inactive) | GI50 [4]: > 100 µM (inactive) | GI50 [5]: > 100 µM (inactive) | GI50 [6]: > 100 µM (inactive) | GI50 [7]: > 100 µM (inactive) | GI50 [8]: > 100 µM (inactive) | GI50 [9]: 59.6 µM (inactive) | GI50 [10]: > 100 µM (inactive) | GI50 [11]: > 100 µM (inactive) | GI50 [12]: > 100 µM (inactive) | GI50 [13]: > 100 µM (inactive) | GI50 [14]: > 100 µM (inactive) | GI50 [15]: > 100 µM (inactive) | GI50 [16]: > 100 µM (inactive) | GI50 [17]: > 100 µM (inactive) | GI50 [18]: > 100 µM (inactive)

COc1cc(C(=O)NC(CCN)(c2ccccc2)c2ccccc2)cc(OC)c1OC
GI50 [1]: > 31.6 µM (inactive) | GI50 [2]: 15.6 µM (inactive) | GI50 [3]: 10.8 µM (inactive) | GI50 [19]: 13 µM (inactive) | GI50 [4]: 25.1 µM (inactive) | GI50 [5]: 29.2 µM (inactive) | GI50 [6]: 56.8 µM (inactive) | GI50 [7]: 13.9 µM (inactive) | GI50 [8]: 29.1 µM (inactive) | GI50 [9]: 12.6 µM (inactive) | GI50 [10]: 12.9 µM (inactive) | GI50 [11]: 24.8 µM (inactive) | GI50 [12]: 21.3 µM (inactive) | GI50 [13]: 53.2 µM (inactive) | GI50 [14]: 21.7 µM (inactive) | GI50 [15]: > 31.6 µM (inactive) | GI50 [16]: > 10 µM (inactive) | GI50 [17]: 26.3 µM (inactive) | GI50 [18]: 19.2 µM (inactive)

Cc1c(C(=O)/C=C/c2ccc(Cl)cc2)[n+]([O-])c2ccccc2[n+]1[O-]
GI50 [1]: 12.6 µM (inactive) | GI50 [2]: 19.3 µM (inactive) | GI50 [3]: 13.8 µM (inactive) | GI50 [4]: 11.8 µM (inactive) | GI50 [5]: 10.8 µM (inactive) | GI50 [6]: 12.5 µM (inactive) | GI50 [7]: 15.6 µM (inactive) | GI50 [8]: 14.7 µM (inactive) | GI50 [9]: 14.2 µM (inactive) | GI50 [10]: 4.6 µM (inactive) | GI50 [11]: 14.7 µM (inactive) | GI50 [12]: 12.4 µM (inactive) | GI50 [13]: 12.9 µM (inactive) | GI50 [14]: 7.1 µM (inactive) | GI50 [15]: 21.2 µM (inactive) | GI50 [16]: 11.1 µM (inactive) | GI50 [17]: 10.4 µM (inactive) | GI50 [18]: 11.3 µM (inactive)
